Reference: patent US10500207B2, “Compounds for the treatment of diseases associated with amyloid or amyloid-like proteins” (AC Immune SA, priority 2010, dated 2019)

Target: Aβ1-42 peptide (Homo sapiens, UniProt P05067)
Assay: Thioflavin T spectrofluorescence assay (ThT-assay): inhibition of Aβ1-42 aggregation (% inhibition at 330 μM; IC50 from dilution series)
Conditions: 24 h, read-out: Inhibition at 330 μM [%], ThT assay; 330 μM small molecule, 33 μM Aβ1-42 (10:1), 24 hrs at 37° C.; mean ± standard deviation of two independent experiments
Description: Aβ1-42 lyophilized powder (Bachem) was reconstituted in hexafluoroisopropanol (HFIP) to 1 mM. The peptide solution was sonicated for 15 min at room temperature, agitated overnight, and aliquots were made into non-siliconized microcentrifuge tubes. The HFIP was then evaporated under a stream of argon. The resulting peptide film was dried under vacuum for 10 min, tightly sealed and stored at −80° C. until used.
A positive control without a small molecule was prepared to measure maximum RFU. A negative control without Aβ1-42 was prepared for each small molecule. […] The solutions were then incubated for 24 hrs at 37° C., and the spectrofluorescence (relative fluorescence units; RFU) were read in six replicates in black 384-well assay plates (Perkin-Elmer) on a Perkin-Elmer FluoroCount spectrofluorometer. The inhibition of aggregation is expressed as mean % inhibition±1 standard deviation (SD) according to the following equation:
Racemic compounds and their enantiomers were tested for their ability to inhibit amyloid peptide aggregation using the ThT assay. To determine the IC50, the following dilutions of the compounds were used in the ThT assay described above:

Sequence of Aβ1-42 peptide (P05067 672-713 limits assumed): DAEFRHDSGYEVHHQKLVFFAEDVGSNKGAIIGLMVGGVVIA

Row | Structure (SMILES) | inhibition at 330 µM [%]
1 | CN1CCC(c2c[nH]c3cc(Nc4cc(F)c(F)cc4F)ccc23)CC1 [Example 79] | 91 ± 4.2
2 | CNC1CCc2c(c3ccc(Nc4cccc(N5CCOCC5)c4)nc3n2C)C1 (stereo not drawn) [Example 82] | 96.6 ± 2
3 | CNC1CCc2c(c3ccc(Nc4ccc5c(c4)OCCCO5)nc3n2C)C1 (stereo not drawn) [Example 84] | 91.7 ± 0.2
4 | CNC1CCc2c(c3ccc(Nc4ccc5c(c4)NC(=O)CO5)nc3n2C)C1 (stereo not drawn) [Example 86] | 96.6 ± 0.7
5 | CN1CCC(c2c[nH]c3cc(Nc4ccc5c(c4)OCC(=O)N5)ccc23)CC1 [Example 87] | 80.8 ± 0.5
6 | CNC1(C)CCc2c(c3ccc(Nc4ccc(F)c(F)c4)nc3n2C)C1 (stereo not drawn) [Example 89] | 89.6 ± 5
7 | CNC1(C)CCc2c(c3ccc(Nc4ccc(OC)c(OC)c4)nc3n2C)C1 (stereo not drawn) [Example 90] | 75.1 ± 0.3
8 | c1ccc2c(c1)CCC2Nc1ccc2c(C3CCNCC3)c[nH]c2c1 (stereo not drawn) [Example 94] | 94.4 ± 3.6
9 | CNC1CCc2c(c3ccc(Nc4ccc(OC)c(OC)c4)nc3n2C)C1 (stereo not drawn) [Example 95] | 89.9 ± 6.1
10 | COc1ccc(Nc2ccc3[nH]cc(C4CCN(C)CC4)c3c2)cc1F [Example 101] | 70.2 ± 9.8
11 | COc1ccc(Nc2ccc3c(C4CCNCC4)c[nH]c3n2)cc1F [Example 102] | 84.1 ± 1.5
12 | COc1ccc(Nc2ccc3c(C4CCN(C)CC4)cn(C)c3n2)cc1F [Example 105] | 96.7 ± 0.7
13 | CNC1CCc2[nH]c3ccc(Nc4ccc(OC)c(F)c4)cc3c2C1 (stereo not drawn) [Example 107] | 86.8 ± 1.9
14 | COc1cc(Nc2ccc3c(C4CCNCC4)cn(C)c3c2)ccc1F [Example 112] | 91.3 ± 1.3
15 | CNC1CCc2c(c3ccc(Nc4ccc(F)c(OC)c4)nc3n2C)C1 (stereo not drawn) [Example 115] | 94 ± 0.8
16 | CNC1CCc2[nH]c3ccc(Nc4ccc(F)c(OC)c4)cc3c2C1 (stereo not drawn) [Example 116] | 89 ± 3.6
17 | CNC1CCc2c(c3ccc(Nc4ccc5c(C6CCN(C)CC6)c[nH]c5c4)nc3n2C)C1 (stereo not drawn) [Example 117] | 90.7 ± 7.9
18 | CN1CCC(c2c[nH]c3cc(Nc4ccc5[nH]cc(C6CCN(C)CC6)c5c4)ccc23)CC1 [Example 118] | 96.8 ± 0.9
19 | COc1ccc(Nc2ccc3c4c(n(C)c3c2)CCC(OC)C4)cc1OC (stereo not drawn) [Example 123] | 93 ± 2.2

Row | Structure (SMILES) | inhibition at 330 µM [%]
20 | COc1cc(Nc2ccc3c4c(n(C)c3c2)CCC(OC)C4)ccc1F (stereo not drawn) [Example 124] | 79.1 ± 3.8
21 | COc1ccc(Nc2ccc3c4c(n(C)c3n2)CCC(OCCF)C4)cc1OC (stereo not drawn) [Example 129] | 79.9 ± 0.6
22 | Cn1c2c(c3ccc(Nc4ccc5c(c4)OCCO5)nc31)CC(OCCF)CC2 (stereo not drawn) [Example 130] | 91.6 ± 0.2
23 | CNC1CCc2[nH]c3cc(Nc4ccc5c(c4)OCCO5)ccc3c2C1 (stereo not drawn) [Example 132] | 99.4 ± 0.8
24 | CNC1CCc2c(c3cc(Nc4ccc(OC)c(OC)c4)cnc3n2C)C1 (stereo not drawn) [Example 135] | 51.9 ± 5.5
25 | COCCOC1CCc2c(c3ccc(Nc4ccc(F)c(F)c4)nc3n2C)C1 (stereo not drawn) [Example 136] | 88 ± 1.4
26 | CNC1CCc2c(c3cc(Nc4ccc5c(c4)OCCO5)cnc3n2C)C1 (stereo not drawn) [Example 137] | 83.3 ± 3.3
27 | CNC1CCc2c(c3cc(Nc4ccc(F)c(OC)c4)cnc3n2C)C1 (stereo not drawn) [Example 138] | 69.3 ± 0.7
28 | CNC1CCc2c(c3ccc(Nc4ccc(F)c(F)c4)cc3n2C)C1 (stereo not drawn) [Example 140] | 93.8 ± 0.6
29 | COCCNC1CCc2c(c3ccc(Nc4ccc(F)c(F)c4)nc3n2C)C1 (stereo not drawn) [Example 141] | 87.5 ± 1.4
30 | COCCNC1CCc2c(c3ccc(Nc4ccc(OC)c(OC)c4)nc3n2C)C1 (stereo not drawn) [Example 142] | 73.2 ± 6.2
31 | Cn1cc(C2CCNCC2)c2ccc(Nc3ccc4c(c3)OCO4)cc21 [Example 145] | 88.3 ± 4.9
32 | CN1CCC(c2c[nH]c3cc(Nc4ccc5c(C6CCN(C)CC6)c[nH]c5n4)ccc23)CC1 [Example 148] | 88.7 ± 2.2
33 | CN1CCC(c2cn(C)c3nc(Nc4ccc5c(c4)OCCO5)ccc23)CC1 [Example 150] | 83.9 ± 1.5
34 | CNC1CCc2c(c3ccc(Nc4ccc5ncn(C)c5c4)nc3n2C)C1 (stereo not drawn) [Example 159] | 91.9 ± 1.6
35 | Cn1c2c(c3ccc(Nc4ccc(N5CCOCC5)cc4)nc31)CCCC2 [Example 165] | 78.1 ± 0.2
36 | Cn1c2c(c3ccc(Nc4ccc5c(c4)OCC(=O)N5)nc31)CCCC2 [Example 167] | 88.9 ± 2.6
37 | Cn1c2c(c3ccc(Nc4ccc5c(c4)NC(=O)CO5)nc31)CCCC2 [Example 168] | 82.1 ± 7
38 | Cn1c2c(c3ccc(Nc4ccc5c(c4)OCO5)nc31)CCCC2 [Example 169] | 92.4 ± 4

Continued, values first:

Row | inhibition at 330 µM [%] | Structure (SMILES)
39 | 75 ± 1.4 | CN1CCC(c2c[nH]c3cc(Nc4ccc5c(c4)OCCCO5)ccc23)CC1 [Example 78]
40 | 83.3 ± 0.1 | CNC1CCc2c(c3ccc(Nc4cccc(N5CCN(C)CC5)c4)nc3n2C)C1 (stereo not drawn) [Example 80]
41 | 90.5 ± 0.5 | COc1ccc(Nc2ccc3c4c(n(C)c3n2)CCCC4)cc1OC [Example 81]
42 | 82.7 ± 0.7 | CNC1CCc2c(c3ccc(Nc4ccc(N5CCN(C)CC5)cc4)nc3n2C)C1 (stereo not drawn) [Example 83]
43 | 95.1 ± 0.9 | CNC1CCc2c(c3ccc(Nc4ccc5c(c4)OCC(=O)N5)nc3n2C)C1 (stereo not drawn) [Example 85]
44 | 96.9 ± 2.6 | COc1ccc(Nc2ccc3[nH]c4c(c3c2)CC(N(C)C)CC4)cc1OC (stereo not drawn) [Example 88]
45 | 92.5 ± 1.3 | COc1ccc(Nc2ccc3c(C4CCN(C)CC4)c[nH]c3c2)cc1OC [Example 91]
46 | 99.6 ± 0.6 | CNC1CCc2c(c3ccc(Nc4ccc5[nH]cc(C6CCNCC6)c5c4)nc3n2C)C1 (stereo not drawn) [Example 92]
47 | 83.8 ± 3.7 | COc1ccc(Nc2ccc3c(C4CCNCC4)cn(C)c3c2)cc1OC [Example 97]
48 | 95.3 ± 0.1 | COc1ccc(Nc2ccc3c(C4CCNCC4)cn(C)c3c2)cc1F [Example 98]
49 | 94.4 ± 0.1 | COc1ccc(Nc2ccc3c(C4CCN(C)CC4)c[nH]c3c2)cc1F [Example 99]
50 | 66.6 ± 1.3 | COc1ccc(Nc2ccc3[nH]cc(C4CCN(C)CC4)c3c2)cc1OC [Example 100]
51 | 93.2 ± 3.7 | COc1ccc(Nc2ccc3c(C4CCNCC4)cn(C)c3n2)cc1F [Example 103]
52 | 89.3 ± 10.6 | COc1ccc(Nc2ccc3c(C4CCN(C)CC4)cn(C)c3c2)cc1OC [Example 104]
53 | 86.4 ± 3.8 | CNC1CCc2[nH]c3ccc(Nc4ccc(OC)c(OC)c4)cc3c2C1 (stereo not drawn) [Example 106]
54 | 98.9 ± 0.5 | CNC1CCc2[nH]c3ccc(Nc4ccc5c(C6CCNCC6)cn(C)c5c4)cc3c2C1 (stereo not drawn) [Example 108]
55 | 63.6 ± 2 | CNC1CCc2[nH]c3ccc(NC4CCN(C)CC4)cc3c2C1 (stereo not drawn) [Example 109]
56 | 99.5 ± 0.1 | Cn1cc(C2CCNCC2)c2ccc(Nc3ccc4ocnc4c3)cc21 [Example 111]
57 | 90.5 ± 0.5 | CN1CCC(c2c[nH]c3cc(Nc4cc(F)c(F)c(F)c4)ccc23)CC1 [Example 113]
58 | 82.2 ± 1.6 | COc1cc(Nc2ccc3c(C4CCN(C)CC4)c[nH]c3c2)ccc1F [Example 114]
59 | 99.2 ± 0.3 | CN1CCC(c2c[nH]c3cc(Nc4ccc5c(C6CCN(C)CC6)c[nH]c5c4)ccc23)CC1 [Example 119]
60 | 100 | CNC1CCc2[nH]c3cc(Nc4ccc(OC)c(OC)c4)ccc3c2C1 (stereo not drawn) [Example 120]
61 | 91 ± 2.5 | COc1ccc(Nc2ccc3c(c2)c2c(n3C)CCC(OC)C2)cc1OC (stereo not drawn) [Example 121]

Row | inhibition at 330 µM [%] | Structure (SMILES)
62 | 80.8 ± 2.9 | COc1cc(Nc2ccc3c(c2)c2c(n3C)CCC(OC)C2)ccc1F (stereo not drawn) [Example 122]
63 | 84.2 ± 5.8 | COC1CCc2c(c3cc(Nc4ccc5c(c4)OCO5)ccc3n2C)C1 (stereo not drawn) [Example 125]
64 | 82.2 ± 2.2 | COC1CCc2c(c3cc(Nc4ccc5c(c4)OCCO5)ccc3n2C)C1 (stereo not drawn) [Example 126]
65 | 91.5 ± 2.5 | COC1CCc2[nH]c3cc(Nc4ccc5c(c4)OCCO5)ccc3c2C1 (stereo not drawn) [Example 127]
66 | 88.6 ± 1.2 | Cn1c2c(c3ccc(Nc4ccc(F)c(F)c4)nc31)CC(OCCF)CC2 (stereo not drawn) [Example 128]
67 | 91.4 ± 0.2 | COc1ccc(Nc2ccc3c4c(n(C)c3n2)CCC(OC(C)C)C4)cc1OC (stereo not drawn) [Example 131]
68 | 99.2 ± 0.3 | CNC1CCc2c(c3ccc(Nc4ccc(OC)c(OC)c4)cc3n2C)C1 (stereo not drawn) [Example 133]
69 | 67.3 ± 10.4 | CNC1CCc2c(c3cc(Nc4ccc(F)c(F)c4)cnc3n2C)C1 (stereo not drawn) [Example 134]
70 | 64.8 ± 3.7 | CC(=O)Nc1cccc(Nc2ccc3c(C4CCNCC4)c[nH]c3n2)c1 [Example 143]
71 | 84.4 ± 4.1 | CN1CCC(c2cn(C)c3nc(Nc4ccc5c(c4)OCO5)ccc23)CC1 [Example 149]
72 | 88.5 ± 2.8 | CN1CCC(c2cn(C)c3nc(Nc4ccc(F)c(F)c4)ccc23)CC1 [Example 151]
73 | 80.8 ± 3.6 | CN1CCC(c2cn(C)c3nc(Nc4ccc5c(c4)CN(C)CC5)ccc23)CC1 [Example 152]
74 | 91.3 ± 4.2 | CN1CCC(c2c[nH]c3cc(Nc4ccc5c(c4)OCO5)ccc23)CC1 [Example 153]
75 | 86.3 ± 2.6 | CN1CCC(c2c[nH]c3cc(Nc4ccc5c(c4)CNCC5)ccc23)CC1 [Example 154]
76 | 95 ± 1.5 | CNC1CCc2c(c3ccc(Nc4ccc5c(c4)OCO5)nc3n2C)C1 (stereo not drawn) [Example 157]
77 | 87.8 ± 3.6 | CNC1CCc2c(c3ccc(Nc4ccc5c(c4)CN(C)CC5)nc3n2C)C1 (stereo not drawn) [Example 158]
78 | 96.3 ± 0.3 | CNC1CCc2c(c3ccc(Nc4ccc(C)c(OC)c4)nc3n2C)C1 (stereo not drawn) [Example 160]
79 | 94.5 ± 3.1 | CN1CCC(c2c[nH]c3cc(Nc4ccc(N5CCOCC5)cc4)ccc23)CC1 [Example 162]
80 | 32.7 ± 0.9 | Cn1c2c(c3ccc(N4CCOCC4)nc31)CCCC2 [Example 163]
81 | 69.4 ± 2.7 | CC(=O)N(C)C1CCc2c(c3ccc(Nc4ccc(N5CCOCC5)cc4)nc3n2C)C1 (stereo not drawn) [Example 164]
82 | 93.6 ± 2.2 | CN1CCN(c2ccc(Nc3ccc4c5c(n(C)c4n3)CCCC5)cc2)CC1 [Example 166]
83 | 70.8 ± 2.3 | CC(=O)N1CCN(c2ccc(Nc3ccc4c5c(n(C)c4n3)CCCC5)cc2)CC1 [Example 170]
84 | 68.3 ± 0.8 | Cn1cnc2ccc(Nc3ccc4c5c(n(C)c4n3)CCCC5)cc21 [Example 172]
